Reference: ChEMBL document CHEMBL1136471, “Fluorescence resonance energy transfer in a novel cyclodextrin-peptide conjugate for detecting steroid molecules” (Bioorg Med Chem Lett, 2003)

Assays:
[1] = Binding constant towards cyclodextrin conjugated peptide (with pyrene) at 25 degrees Centigrade
[2] = Sensitivity value towards cyclodextrin conjugated peptide (with pyrene) at 25 degrees Centigrade; design: concentration or dose not given beside the values

Structure (SMILES)	Activity [1]	Change in sensitivity [2]
C[C@H](CCC(=O)O)[C@H]1CC[C@H]2[C@@H]3[C@H](O)C[C@@H]4C[C@H](O)CC[C@]4(C)[C@H]3C[C@H](O)[C@]12C	900 Kb M-1	0.008
C[C@H](CCC(=O)O)[C@H]1CC[C@H]2[C@@H]3[C@H](O)C[C@@H]4C[C@H](O)CC[C@]4(C)[C@H]3CC[C@]12C	33300 Kb M-1	0.16
C[C@H](CCC(=O)O)[C@H]1CC[C@H]2[C@@H]3CC[C@@H]4C[C@H](O)CC[C@]4(C)[C@H]3CC[C@]12C	439000 Kb M-1	0.45
C[C@H](CCC(=O)O)[C@H]1CC[C@H]2[C@@H]3C[C@H](O)[C@@H]4C[C@H](O)CC[C@]4(C)[C@H]3CC[C@]12C	210000 Kb M-1	0.4
C[C@H](CCC(=O)O)[C@H]1CC[C@H]2[C@@H]3[C@@H](O)C[C@@H]4C[C@H](O)CC[C@]4(C)[C@H]3CC[C@]12C	173000 Kb M-1	0.4
C[C@H](CCC(=O)O)[C@H]1CC[C@H]2[C@@H]3CC[C@@H]4C[C@H](O)CCC4(C)[C@H]3C[C@H](O)[C@]12C (single isomer, unassigned)	1100 Kb M-1	0.01
